For one assay, the target named is T1, Rat Androgen Receptor (Rattus norvegicus, UniProt P15207).
T1 construct: purchased Life Technologies A15880
T1 sequence (P15207 646-902 limits assumed): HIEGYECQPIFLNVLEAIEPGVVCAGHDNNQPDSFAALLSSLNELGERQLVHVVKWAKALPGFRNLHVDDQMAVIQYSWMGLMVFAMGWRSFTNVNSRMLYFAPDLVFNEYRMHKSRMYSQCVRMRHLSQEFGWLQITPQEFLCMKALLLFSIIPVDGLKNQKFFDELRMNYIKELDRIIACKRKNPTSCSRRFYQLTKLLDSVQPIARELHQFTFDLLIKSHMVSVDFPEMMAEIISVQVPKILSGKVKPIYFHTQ
Briefly: Rat Androgen Receptor Binding (polarscreen AR competitor assay, fluorescence polarization). The following applies: displacement of Fluormone AL Green, 4 hours at RT, read-out: AR rat-fluorimetric. Here is the method:
Pharmacological Activity Rat Androgen Receptor Binding
The assay was carried out following the instructions of polarscreen AR competitor assay green kit (Life Technologies, Cat #.: A15880). Briefly, the test is based on measuring the changes of fluorescence polarization shown by the Fluormone AL Green. Thus, when the Fluormone is bound to the receptor, a fluorescence polarization is observed that diminishes when a ligand competes for the receptor binding site and the Fluormone gets displaced.
The inhibition values for each of the compounds are measured in duplicate at 1 and 10 μM and the plate is incubated for 4 hours at RT. Fluorescence polarization is the measured in a Tecan Infinite M1000 Pro reader (λexc=485 nm, λem=535 nm). In order to obtain a dose-response curve and calculate the potency of inhibition (expressed as IC50) for AR, a series of 1:10 dilutions in test in 1× buffer from 10 μM to 0.1 nM for each compound was carried out.
(Polarisation of emitted light reports the rotation of a fluorescent probe.)

The next assay has as its target T2, human androgen receptor (Homo sapiens, UniProt P10275, T878A).
T2 construct: endogenously expressed human androgen receptor using the LnCap prostate cancer cell line; endogenous in cells; host or cells: LNCaP prostate cancer cell line (whole cells)
T2 sequence (P10275 1-920 T878A): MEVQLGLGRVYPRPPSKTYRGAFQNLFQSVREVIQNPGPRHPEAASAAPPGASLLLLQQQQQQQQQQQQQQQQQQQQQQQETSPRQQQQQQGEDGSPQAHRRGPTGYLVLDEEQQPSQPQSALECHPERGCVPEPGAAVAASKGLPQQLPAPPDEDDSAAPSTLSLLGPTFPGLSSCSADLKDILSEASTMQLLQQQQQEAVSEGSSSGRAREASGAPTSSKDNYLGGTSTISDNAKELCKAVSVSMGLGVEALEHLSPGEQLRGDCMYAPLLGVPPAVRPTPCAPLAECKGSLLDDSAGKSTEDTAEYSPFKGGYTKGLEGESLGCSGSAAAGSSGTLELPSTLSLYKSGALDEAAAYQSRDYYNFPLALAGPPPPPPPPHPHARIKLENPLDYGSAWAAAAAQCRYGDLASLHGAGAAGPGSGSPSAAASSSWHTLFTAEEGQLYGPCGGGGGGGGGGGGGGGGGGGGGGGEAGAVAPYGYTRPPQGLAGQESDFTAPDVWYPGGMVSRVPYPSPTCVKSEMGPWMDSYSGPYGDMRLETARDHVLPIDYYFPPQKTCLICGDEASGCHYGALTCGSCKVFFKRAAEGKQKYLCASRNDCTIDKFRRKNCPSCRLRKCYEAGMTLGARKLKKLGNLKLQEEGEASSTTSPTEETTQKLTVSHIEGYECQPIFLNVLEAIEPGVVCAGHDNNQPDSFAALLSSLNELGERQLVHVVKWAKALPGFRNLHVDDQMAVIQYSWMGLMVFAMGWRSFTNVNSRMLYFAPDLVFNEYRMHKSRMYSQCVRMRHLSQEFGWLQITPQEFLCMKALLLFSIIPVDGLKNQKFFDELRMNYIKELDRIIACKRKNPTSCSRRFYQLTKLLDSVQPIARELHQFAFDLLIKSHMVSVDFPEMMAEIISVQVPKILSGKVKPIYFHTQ
The assay is described as follows: Human Androgen Receptor Binding (radioligand binding, LnCap prostate cancer cell line). The following applies: LnCap cells, displacement of [^3H]-methyltrienolone, 2 hours at 37° C.; read-out: AR LNCaP. In outline: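 Whole-cell displacement of [3H]-methyltrienolone from endogenous AR (T878A) in LnCap cells, in RPMI with 0.1% BSA and triamcinolone acetonide. Compounds 10 μM to 0.1 nM in 1:10 steps, 2 h at 37 °C; cells washed, SDS-lysed, bound radioactivity by scintillation counting for IC50.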

Assay [1] concerns the target T3, Human Glucocorticoid Receptor (Homo sapiens, UniProt P04150).
T3 construct: endogenous in cells; host or cells: cytosol from IM-9 cell line
T3 sequence (P04150 1-777): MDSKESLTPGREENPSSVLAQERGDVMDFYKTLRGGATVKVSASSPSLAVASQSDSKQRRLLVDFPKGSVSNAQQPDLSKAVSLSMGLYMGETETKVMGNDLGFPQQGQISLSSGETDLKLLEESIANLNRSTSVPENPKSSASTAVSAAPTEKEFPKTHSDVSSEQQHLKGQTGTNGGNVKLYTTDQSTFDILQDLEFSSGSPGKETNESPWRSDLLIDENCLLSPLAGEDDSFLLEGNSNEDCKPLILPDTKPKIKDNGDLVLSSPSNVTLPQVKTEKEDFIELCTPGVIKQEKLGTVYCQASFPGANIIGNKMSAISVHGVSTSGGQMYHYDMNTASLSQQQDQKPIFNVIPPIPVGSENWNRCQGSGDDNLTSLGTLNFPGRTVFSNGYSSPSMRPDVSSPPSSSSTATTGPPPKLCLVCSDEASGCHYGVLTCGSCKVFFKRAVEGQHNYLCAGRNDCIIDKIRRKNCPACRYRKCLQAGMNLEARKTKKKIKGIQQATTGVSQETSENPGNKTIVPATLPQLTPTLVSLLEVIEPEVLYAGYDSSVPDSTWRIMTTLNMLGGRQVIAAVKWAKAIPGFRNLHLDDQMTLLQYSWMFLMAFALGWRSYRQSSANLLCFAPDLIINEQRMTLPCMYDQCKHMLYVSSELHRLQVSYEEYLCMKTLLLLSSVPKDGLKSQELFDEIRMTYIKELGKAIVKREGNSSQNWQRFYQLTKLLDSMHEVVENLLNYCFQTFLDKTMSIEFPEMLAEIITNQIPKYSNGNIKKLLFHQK
The assay is described as follows: Competition Binding in IM-9 Human Glucocorticoid Receptor (GR IM-9). The conditions noted are these: cytosol from IM-9 cell line, 1.5 nM [3H]-Dexamethasone, 4° C. for 6 hours. In outline: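 Radioligand competition using 100 μg IM-9 cell cytosol and 1.5 nM [3H]-dexamethasone, incubated 6 h at 4° C in TES/molybdate buffer, pH 7.4. Filtration on PEI-treated GF/B filters, scintillation counting; nonspecific binding defined with 10 μM triamcinolone.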

The target of a further assay is T4, AR-Receptor (Homo sapiens, UniProt P10275).
T4 sequence (P10275 1-920 Q868H): T2 sequence (P10275 1-920 T878A) with Q868H, A878T
Briefly: Functional Assay AR-Receptor (MDA-MB-453 cells, luciferase). It counts as cell-based. The following applies: antagonist effect in the presence of DHT 1 nM, 24 h, luciferase luminescence, read-out: AR antag KB. Here is the method:
Functional Assay AR-Receptor
MDA-MB-453 cells were cultured in DMEM (ATCC, ref 30-2002), 10% FBS, 1% penicillin, 1% streptomycin, 75 μg/ml gentamycin.
The day before performing assay, the cells were trypsinized and seeded in a 384-well plate (Greiner, ref 781098) (8000 cells/well) in 50 μl of complete culture medium. Cells were stores at 37° C. in a 5% CO2 atmosphere overnight.
The medium was replaced by 50 μl complete growth medium with 0.1% FBS. Compounds were dispensed with Echo 550 (Labcyte) and incubated for 24 h at 37° C. in a 5% CO2 atmosphere. Antagonist effect was measured in the presence of DHT 1 nM.
After incubation, assay medium removed and 20 μl of 1× Promega lysis buffer were added to each well. The plate was incubated 15 minutes at RT and quick-frozen to −80° C. and the thaw to room temperature. 50 μl of luciferase substrate (E4550, Promega) were added to each well and luminescence (integration time 1000 msec) was read in an EnSpire multilabel reader (Perkin Elmer).

Here are results for eleven molecules from US11453660B2, “Androgen receptor and glucocorticoid receptor modulators” (ONCOSTELLAE, S.L., priority 2017, dated 2022).

Positions count from the first letter of the chain named. Bounds are passed on as bounds.

For `CC(=O)C1=C(C)NC(C)=C(C(=O)OCC2CC2)C1c1csc2ccccc12` (stereo not drawn) [Example C6, Cyclopropylmethyl 5-acetyl-4-(benzo[b]thiophen-3-yl)-2,6-dimethyl-1,4-dihydropyridine-3-carboxylate], the IC50 on Rat Androgen Receptor is 100 to 1000 nM; at human androgen receptor it was 100 to 1000 nM; in assay [1], less than 100 nM.

Regarding `COC(=O)C1=C(C(F)(F)F)NC(C)=C(C(C)=O)C1c1csc2ccccc12` (stereo not drawn) [Example C14, Methyl 5-acetyl-4-(benzo[b]thiophen-3-yl)-6-methyl-2-(trifluoromethyl)-1,4-dihydropyridine-3-carboxylate], the IC50 on Rat Androgen Receptor is 100 to 1000 nM; on human androgen receptor it was less than 100 nM; in assay [1], 100 to 1000 nM.

`COC(=O)C1=C(CF)NC(C)=C(C(C)=O)C1c1csc2ccccc12` (stereo not drawn) [Example C20, Methyl 5-acetyl-4-(benzo[b]thiophen-3-yl)-2-(fluoromethyl)-6-methyl-1,4-dihydropyridine-3-carboxylate]: the IC50 at Rat Androgen Receptor and at human androgen receptor was 100 to 1000 nM each time.

As usually defined, the Kb is the affinity of an antagonist, worked out from how it opposes an agonist. In the case of `CC(=O)C1=C(C)NC(C)=C(C(=O)OCc2cccnc2)C1c1csc2ccc(F)cc12` (stereo not drawn) [Example C57, Pyridin-3-ylmethyl 5-acetyl-4-(5-fluorobenzo[b]thiophen-3-yl)-2,6-dimethyl-1,4-dihydropyridine-3-carboxylate], on AR-Receptor, the Kb was in the range of 100 to 1000 nM.

Regarding `CC(=O)C1=C(C)NC(C)=C(C(=O)OCc2cccnc2)C1c1csc2ccc(Cl)cc12` (stereo not drawn) [Example C60, Pyridin-3-ylmethyl 5-acetyl-4-(5-chlorobenzo[b]thiophen-3-yl)-2,6-dimethyl-1,4-dihydropyridine-3-carboxylate], the Kb on AR-Receptor was in the range of 100 to 1000 nM.

On to `COC(=O)C1=C(N)NC(C)=C(C(C)=O)C1c1csc2ccccc12` (stereo not drawn) [Example D1, Methyl 5-acetyl-2-amino-4-(benzo[b]thiophen-3-yl)-6-methyl-1,4-dihydropyridine-3-carboxylate], for which the IC50 was less than 100 nM at Rat Androgen Receptor, 100 to 1000 nM on human androgen receptor and no less than 1000 nM in assay [1].

On to `CC1=C(C#N)C(c2csc3ccccc23)C(C#N)=C(C)N1` [Example E1, 4-(Benzo[b]thiophen-3-yl)-2,6-dimethyl-1,4-dihydropyridine-3,5-dicarbonitrile], for which the IC50 on Rat Androgen Receptor and at human androgen receptor was less than 100 nM each time.

For `CC(=O)C1=C(C)NC(C)=C(C(C)=O)C1c1csc2ccccc12` [Example G1, 1,1′-(4-(benzo[b]thiophen-3-yl)-2,6-dimethyl-1,4-dihydropyridine-3,5-diyl)diethanone], the IC50 on Rat Androgen Receptor and at human androgen receptor was less than 100 nM in each case.

Turning to `CC(=O)C1=C(C)NC(C)=C(C(C)=O)C1c1csc2ncccc12` [Example H15, 1,1′-(2,6-Dimethyl-4-(thieno[2,3-b]pyridin-3-yl)-1,4-dihydropyridine-3,5-diyl)bis(ethan-1-one)], the IC50 on Rat Androgen Receptor is less than 100 nM; on human androgen receptor, 100 to 1000 nM.

Consider `COC(=O)C1=C(C)NC(C)=C(C(C)=O)C1c1csc2ncccc12` (stereo not drawn) [Example J21, Methyl 5-acetyl-2,6-dimethyl-4-(thieno[2,3-b]pyridin-3-yl)-1,4-dihydropyridine-3-carboxylate], for which the IC50 at Rat Androgen Receptor and at human androgen receptor was less than 100 nM each time.

On to `COC(=O)C1=C(C2CC2)NC(C)=C(C(C)=O)C1c1csc2ccc(F)cc12` (stereo not drawn) [Example J22, Methyl 5-acetyl-2-cyclopropyl-4-(5-fluorobenzo[b]thiophen-3-yl)-6-methyl-1,4-dihydropyridine-3-carboxylate], for which the IC50 (at Rat Androgen Receptor; on human androgen receptor; in assay [1]) was less than 100 nM each time.
